Like-named read-outs stand apart in the source and are kept apart here.
Assays:
[1] = target: T1, human bradykinin 1 receptor (B1R) (Homo sapiens, UniProt P46663); assay: Functional investigation on the human bradykinin 1 receptor (B1R), Ca2+ FLIPR assay in CHO K1 hB1R cells; type: cell-based
T1 construct: expressed in transfected cells; host or cells: CHO K1 cells
T1 sequence (P46663 1-353): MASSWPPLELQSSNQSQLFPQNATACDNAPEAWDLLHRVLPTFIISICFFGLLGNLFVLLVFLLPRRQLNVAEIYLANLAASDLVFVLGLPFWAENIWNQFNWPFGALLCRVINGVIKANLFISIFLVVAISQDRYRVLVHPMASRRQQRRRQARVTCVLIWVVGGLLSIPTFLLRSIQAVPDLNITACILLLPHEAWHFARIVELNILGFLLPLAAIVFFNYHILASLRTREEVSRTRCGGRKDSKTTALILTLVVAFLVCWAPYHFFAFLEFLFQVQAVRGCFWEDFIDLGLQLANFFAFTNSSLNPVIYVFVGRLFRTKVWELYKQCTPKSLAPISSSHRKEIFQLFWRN
How it was run: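 Cells were dye-loaded with Fluo-4 plus probenecid, then test substances added and Ca2+ influx compared with agonist control for % activation. After 10-20 min, EC80 agonist (Lys-Des-Arg9-bradykinin human; Des-Arg9-bradykinin rat) was applied; suppression gave % inhibition and IC50 values.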

[2] = target: T2, serotonin (5-HT) reuptake (Rattus norvegicus, UniProt P31652); assay: Inhibition of serotonin (5HT) reuptake in synaptosomes from rat brain; type: biochemical; conditions: test concentration of 10 μM; read-out: 5-HT (inhibition of reuptake of serotonin, % inhibition)
T2 construct: synaptosomes are freshly isolated from areas of the rat brain; from tissue; host or cells: rat brain synaptosomes (P2 fraction)
T2 sequence (P31652 whole entry): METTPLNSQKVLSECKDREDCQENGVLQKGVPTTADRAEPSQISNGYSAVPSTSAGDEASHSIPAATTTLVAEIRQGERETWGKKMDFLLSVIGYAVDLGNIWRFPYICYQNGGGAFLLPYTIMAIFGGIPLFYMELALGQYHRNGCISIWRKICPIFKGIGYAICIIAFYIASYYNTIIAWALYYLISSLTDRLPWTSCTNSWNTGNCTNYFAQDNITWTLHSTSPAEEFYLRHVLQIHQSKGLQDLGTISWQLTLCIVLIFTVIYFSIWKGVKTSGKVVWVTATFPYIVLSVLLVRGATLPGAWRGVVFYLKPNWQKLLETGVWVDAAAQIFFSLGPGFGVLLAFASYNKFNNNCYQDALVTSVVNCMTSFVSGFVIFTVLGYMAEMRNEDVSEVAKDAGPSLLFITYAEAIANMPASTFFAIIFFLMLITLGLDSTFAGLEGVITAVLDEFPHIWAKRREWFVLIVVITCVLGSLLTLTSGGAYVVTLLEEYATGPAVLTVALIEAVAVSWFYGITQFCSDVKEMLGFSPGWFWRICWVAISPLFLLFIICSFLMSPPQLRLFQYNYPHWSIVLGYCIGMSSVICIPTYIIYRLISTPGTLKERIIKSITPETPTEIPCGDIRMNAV
How it was run: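 Freshly isolated rat brain synaptosomes (P2 fraction) used for 5-HT reuptake. Test compound at 10 μM, activity given as % inhibition.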

[3] = CHO-K1, B1R antagonism human, test substance 10 μM, Ca2+ FLIPR, CHO K1 hB1R cells, read-out: B1R Ant. h [10 μM] % Inhibition

Work on `COc1cc(C)c(S(=O)(=O)N(C)CCOCC(=O)NCCC2CCC(C(c3cccs3)N(C)C)CC2)c(C)c1` (centres unmarked) [Example 84, N-(2-(4-((dimethylamino)(thiophen-2-yl)methyl)cyclohexyl)ethyl)-2-(2-(4-methoxy-N,2,6-trimethylphenylsulfonamido)ethoxy)acetamide] yielded an inhibition at 10 µM [1, 3] of 104% and an inhibition at 10 µM [2] of 92%.

For `COc1ccc(S(=O)(=O)N(C)CCOCC(=O)NC2CCC(C(c3cccs3)N(C)C)CC2)cc1` (centres unmarked) [Example 73, N-(4-((dimethylamino)(thiophen-2-yl)methyl)cyclohexyl)-2-(2-(4-methoxy-N-methylphenylsulfonamido)ethoxy)acetamide], the inhibition at 10 µM [1, 3] was 11% and the inhibition at 10 µM [2] was 77%.

For `CN(C)C(c1cccs1)C1CCC(CCNC(=O)COCCN(C)S(=O)(=O)c2ccc(OC(F)(F)F)cc2)CC1` (centres unmarked) [Example 65, N-(2-(4-((dimethylamino)(thiophen-2-yl)methyl)cyclohexyl)ethyl)-2-(2-(N-methyl-4-(trifluoromethoxy)phenylsulfonamido)ethoxy)acetamide], the inhibition at 10 µM [1, 3] was 12% and the inhibition at 10 µM [2] was 95%.

For `COc1cc(C)c(S(=O)(=O)N2CCC(CCOCC(=O)NC3CCC(C(c4cccs4)N(C)C)CC3)CC2)c(C)c1C` (centres unmarked) [Example 5, N-(4-((dimethylamino)(thiophen-2-yl)methyl)cyclohexyl)-2-(2-(1-(4-methoxy-2,3,6-trimethylphenylsulfonyl)piperidin-4-yl)ethoxy)acetamide], the inhibition at 10 µM [1, 3] was 24% and the inhibition at 10 µM [2] was 87%.

With `COc1cc(C)c(S(=O)(=O)N(C)CCOCC(=O)NCCC2CCC(C(c3cccs3)N(C)C)CC2)c(C)c1C` (centres unmarked) [Example 52, N-(2-(4-((dimethylamino)(thiophen-2-yl)methyl)cyclohexyl)ethyl)-2-(2-(4-methoxy-N,2,3,6-tetramethylphenylsulfonamido)ethoxy)acetamide] the inhibition at 10 µM [1, 3] was 103% and the inhibition at 10 µM [2] was 91%.

Molecule `CN(C)C(c1ccccc1)C1CCC(CNC(=O)COC2CCN(S(=O)(=O)c3ccc(Cl)cc3)C2)CC1` (centres unmarked) [Example 81, 2-(1-(4-chlorophenylsulfonyl)pyrrolidin-3-yloxy)-N-((4-((dimethylamino)(phenyl)methyl)cyclohexyl)methyl)acetamide] has an inhibition at 10 µM [1, 3] of -10% and an inhibition at 10 µM [2] of 91%.

In the case of `COc1ccc(S(=O)(=O)N2CCCCC2CCOCC(=O)NCC2CCC(C(c3ccccc3)N(C)C)CC2)cc1` (centres unmarked) [Example 89, N-((4-((dimethylamino)(phenyl)methyl)cyclohexyl)methyl)-2-(2-(1-(4-methoxyphenylsulfonyl)piperidin-2-yl)ethoxy)acetamide], the inhibition at 10 µM [1, 3] is reported as 42% and the inhibition at 10 µM [2] is reported as 92%.

`Cc1cc(C)c(S(=O)(=O)N(C)CCOCC(=O)NCC2CCC(C(c3cccs3)N(C)C)CC2)c(C)c1` (centres unmarked) [Example 57, N-((4-((dimethylamino)(thiophen-2-yl)methyl)cyclohexyl)methyl)-2-(2-(N,2,4,6-tetramethylphenylsulfonamido)ethoxy)acetamide] was tested, and the inhibition at 10 µM [1, 3] was 82% and the inhibition at 10 µM [2] was 101%.

In the case of `CN(C)C(c1cccc(F)c1)C1CCC(CNC(=O)COCCN(C)S(=O)(=O)c2ccc(Cl)cc2Cl)CC1` (centres unmarked) [Example 70, 2-(2-(2,4-dichloro-N-methylphenylsulfonamido)ethoxy)-N-((4-((dimethylamino)(3-fluorophenyl)methyl)cyclohexyl)methyl)acetamide], the inhibition at 10 µM [1, 3] is reported as 98% and the inhibition at 10 µM [2] is reported as 86%.

`CN(C)C(c1cccs1)C1CCC(CNC(=O)COCCN(C)S(=O)(=O)c2ccc(F)cc2)CC1` (centres unmarked) [Example 56, N-((4-((dimethylamino)(thiophen-2-yl)methyl)cyclohexyl)methyl)-2-(2-(4-fluoro-N-methylphenylsulfonamido)ethoxy)acetamide] was tested, and the inhibition at 10 µM ([1]; CHO-K1, read-out: B1R Ant. h [10 μM] % Inhibition) was 22% and the inhibition at 10 µM [2] was 100%.

In the case of `CN(C)C(c1ccccc1)C1CCC(NC(=O)COC2CCCCC2N(C)S(=O)(=O)c2ccc(Cl)c(Cl)c2)CC1` (centres unmarked) [Example 39, 2-(2-(3,4-dichloro-N-methylphenylsulfonamido)cyclohexyloxy)-N-(4-((dimethylamino)(phenyl)methyl)cyclohexyl)acetamide], the inhibition at 10 µM [1, 3] is reported as 89% and the inhibition at 10 µM [2] is reported as 91%.

`COc1cc(C)c(S(=O)(=O)N2CCC(CCOCC(=O)NCCC3CCC(C(c4cccs4)N(C)C)CC3)CC2)c(C)c1C` (centres unmarked) [Example 75, N-(2-(4-((dimethylamino)(thiophen-2-yl)methyl)cyclohexyl)ethyl)-2-(2-(1-(4-methoxy-2,3,6-trimethylphenylsulfonyl)piperidin-4-yl)ethoxy)acetamide] showed an inhibition at 10 µM [1, 3] of 15% and an inhibition at 10 µM [2] of 96%.

In the case of `COc1ccc(S(=O)(=O)N2CCCCC2COCC(=O)NCC2CCC(C(c3ccccc3)N(C)C)CC2)cc1` (centres unmarked) [Example 88, N-((4-((dimethylamino)(phenyl)methyl)cyclohexyl)methyl)-2-((1-(4-methoxyphenylsulfonyl)piperidin-2-yl)methoxy)acetamide], the inhibition at 10 µM [1, 3] is reported as 80% and the inhibition at 10 µM [2] is reported as 95%.

Molecule `COc1ccc(S(=O)(=O)N2CCCCC2CCOCC(=O)NCC2CCC(C(c3cccs3)N(C)C)CC2)cc1` (centres unmarked) [Example 90, N-((4-((dimethylamino)(thiophen-2-yl)methyl)cyclohexyl)methyl)-2-(2-(1-(4-methoxyphenylsulfonyl)piperidin-2-yl)ethoxy)acetamide] has an inhibition at 10 µM [1, 3] of 49% and an inhibition at 10 µM [2] of 94%.

`Cc1ccc(S(=O)(=O)N(C)CCOCC(=O)NCCC2CCC(C(c3cccs3)N(C)C)CC2)cc1` (centres unmarked) [Example 82, N-(2-(4-((dimethylamino)(thiophen-2-yl)methyl)cyclohexyl)ethyl)-2-(2-(N,4-dimethylphenylsulfonamido)ethoxy)acetamide] gave an inhibition at 10 µM [1, 3] of -2% and an inhibition at 10 µM [2] of 85%.

`CN(C)C(c1ccccc1)C1CCC(CNC(=O)COC2CCCCC2N(C)S(=O)(=O)c2ccc(Cl)c(Cl)c2)CC1` (centres unmarked) [Example 78, 2-(2-(3,4-dichloro-N-methylphenylsulfonamido)cyclohexyloxy)-N-((4-((dimethylamino)(phenyl)methyl)cyclohexyl)methyl)acetamide] showed an inhibition at 10 µM [1, 3] of 51% and an inhibition at 10 µM [2] of 86%.

— US8106055B2, “Substituted amide compounds” (Gruenenthal GmbH, priority 2007, dated 2012)
